Consider 30 compounds from US20190276389A1, “SYNTHESIS OF ARYL CYCLOHEXANE ESTER DERIVATIVES USEFUL AS SENSATES IN CONSUMER PRODUCTS” (The Procter & Gamble Company, priority 2015, published 2019).

Structures are written as SMILES.

The target of assay [1] is human TRPM8. The experiment in a line: TRPM8 Protocol-FLIPR Assay (intracellular Ca2+ in HEK-293 cells stably transfected with human TRPM8). The note with it: HEK-293 cells stably transfected with human TRPM8, Fluo-4 AM, read-out: TRPM8 EC 50 Value. The format is cell-based. Here is the method:
(§1) Trypsin was inactivated by addition of 8 ml growth medium. Cells were transferred to a 50 ml tube and centrifuged at 850 rpm for 3 minutes to remove medium. After centrifugation, a pellet of cells was formed in the bottom of the tube separating them from the supernatant solution. […] Fluo-4 AM is a fluorescent dye used for quantifying cellular Ca^2+ concentrations in the 100 nM to 1 microM range. At the end of 30 minutes, 45 ml of assay buffer (1×BSS (Hank's Balanced Salt Solution), 20 mM HEPES (4-(2-Hydroxyethyl)-1-piperazineethanesulfonic acid)) was added to wash cells and the resulting mixture was then centrifuged at 850 rpm for 3 minutes to remove excess buffer and Fluo-4 AM calcium indicator.
(§2) The pelleted cells were re-suspended in 10 ml assay buffer and 90 μl aliquots (˜50,000 cells) per well delivered to a 96-well assay plate containing 10 μl of test compounds (1 mM in assay buffer, final concentration 100 μM) or buffer control and incubated at room temperature for 30 minutes. After 30 minutes, a plate was placed into a fluorometric imaging plate reader (FLIPR384 from Molecular Devices, Sunnyvale, Calif.) and basal fluorescence recorded (excitation wave length 488 nm and emission wave length 510 nm). Then 20 μl of […] of TRPM8 agonist WS5 coolant in the assay buffer was added and fluorescence recorded. For determining the direct effect of test compounds on TRPM8, fluorescence was measured immediately after addition of each compound (TABLE 1).

The nature of assay [2]: Sensory evaluation of cooling intensity after brushing with dentifrice. The format is in vivo. To be noted: avg 7 panelists, dentifrice with 0.001% (10 ppm) coolant. The protocol:
Dentifrices were prepared using conventional methods, such as the protocols described in U.S. Pat. No. 8,747,814, which contained no coolant (SAMPLE A—Crest Cavity Protection) or having a coolant from TABLE 1 (SAMPLE B), in a flavor (wintergreen) at 10 parts per million (ppm).
Sensory evaluation studies of coolant activity were conducted using a methodology patterned after the techniques described in M. C. Meilgaard, et al., Sensory Evaluation Techniques, 4th Ed. (2007). Seven panelists brushed with a dentifrice from TABLE 2, having no coolant (SAMPLE A) or having a coolant from TABLE 1 (SAMPLE B), for two minutes, in a flavor (wintergreen) at 10 parts per million (ppm). After brush expectoration, panelists then rinsed their mouth with 15 ml of an aqueous rinse and expectorated.

Assay [3] concerns the target human TRPM8 (UniProt Q8R4D5). Put plainly: TRPM8 Protocol-FLIPR Assay (intracellular Ca2+ in HEK-293 cells stably transfected with human TRPM8). The format is cell-based. The note with it: HEK-293 cells stably transfected with human TRPM8, Fluo-4 AM. The protocol:
as §1, §2

For assay [4] the following is noted: concentration where the cooling effect could be clearly recognized; cited from earlier work.

With `CC(C)[C@@H]1CC[C@@H](C)C[C@H]1C(=O)OC[C@@H](NC(=O)[C@@H](C)N)c1ccccc1.Cl` [#1], at human TRPM8 [1], the EC50 came to 8.08 nM. The “Cooling Rating (0-90) of Dentifrice” value in assay [2] (Time 0 min, wintergreen flavor, 0 = no cooling, 90 = cold as ice) is reported as 33.57; in assay [2] (Time 15 min) it was 32.71; in assay [2] (Time 30 min), 26.43; in assay [2] (Time 60 min) it was 35.71; in assay [2] (Time 120 min), 40.00; in assay [2] (Time 180 min) it was 36.43. In addition, the “Cooling Rating (0-90) of Dentifrice” value came to 34.29 in assay [2] (Time 240 min); 30.71 in assay [2] (Time 300 min); 30.71 in assay [2] (Time 360 min); 23.57 in assay [2] (Time 420 min); 20.71 in assay [2] (Time 480 min).

`CC(C)[C@@H]1CC[C@@H](C)C[C@H]1OC(=O)C[C@@H](NC(=O)CN)c1ccccc1` [#2]: on human TRPM8 [1], the EC50 came to 62 nM.

As to `CC(C)[C@@H]1CC[C@@H](C)C[C@H]1C(=O)OC[C@@H](NC(=O)CNC(=O)OC(C)(C)C)c1ccccc1` [#3], the EC50 at human TRPM8 [1] turned out to be 23200 nM.

`CC(C)[C@@H]1CC[C@@H](C)C[C@H]1C(=O)OC[C@@H](NC(=O)CN)c1ccccc1` [#4]: the EC50 at human TRPM8 [1] was 64 nM.

On to `CC1CCC(C(C)C)C(OC(=O)C(N)c2ccccc2)C1` (centres unmarked) [#5], for which the EC50 at human TRPM8 [1] amounted to 60200 nM.

As for `CC(C)[C@@H]1CC[C@@H](C)C[C@H]1OC(=O)C[C@@H](NC(=O)OC(C)(C)C)c1ccccc1` [#6], the “TRPM8 EC 50 Value” at human TRPM8 [3] is “Too high to measure”.

For the compound `CC1CCC(C(C)C)C(OC(=O)CC(N)c2ccccc2)C1` (centres unmarked) [#7], the EC50 at human TRPM8 [1] was determined as 8000 nM.

On to `CC(C)[C@@H]1CC[C@@H](C)C[C@H]1OC(=O)C[C@@H](NC(=O)CNC(=O)OC(C)(C)C)c1ccccc1` [#8], for which the “TRPM8 EC 50 Value” on human TRPM8 [3] was “Too high to measure”.

With `CC(C)[C@@H]1CC[C@@H](C)C[C@H]1C(=O)OC[C@@H](OC(=O)CN)c1ccccc1` [#9], the EC50 on human TRPM8 [1] worked out at 13 nM.

Take `CC(C)[C@@H]1CC[C@@H](C)C[C@H]1OC(=O)C[C@@H](NC(=O)[C@@H](C)N)c1ccccc1` [#10]: the EC50 at human TRPM8 [1] was 36.8 nM.

On to `CC(C)[C@@H]1CC[C@@H](C)C[C@H]1C(=O)OC[C@@H](NC(=O)[C@H](C)N)c1ccccc1` [#11], for which, on human TRPM8 [1], the EC50 turned out to be 343 nM.

`CC(C)[C@@H]1CC[C@@H](C)C[C@H]1C(=O)OC[C@@H](O)c1ccccc1` [#12]: the EC50 on human TRPM8 [1] is 590 nM.

On to `CC(C)[C@H]1CC[C@H](C)C[C@@H]1OC(=O)C[C@@H](NC(=O)CN)c1ccccc1` [#13], for which the EC50 at human TRPM8 [1] turned out to be 882 nM.

In the case of `CC(C)[C@@H]1CC[C@@H](C)C[C@H]1OC(=O)C[C@@H](NC(=O)[C@H](C)N)c1ccccc1` [#14], the EC50 at human TRPM8 [1] turned out to be 914 nM.

Turning to `CC(C)[C@@H]1CC[C@@H](C)C[C@H]1OC(=O)CC(NCCN)c1ccccc1` (some centres unmarked) [#15], on human TRPM8 [1], the EC50 was determined as 1960 nM.

For the compound `CC(C)[C@@H]1CC[C@@H](C)C[C@H]1OC(=O)CC(NCc1ccccn1)c1ccccc1` (some centres unmarked) [#16], the EC50 at human TRPM8 [1] is 2070 nM.

`CC(C)[C@@H]1CC[C@@H](C)C[C@H]1C(=O)OC[C@H](NC(=O)CN)c1ccccc1` [#17]: the EC50 at human TRPM8 [1] was determined as 2260 nM.

In the case of `CC(C)[C@@H]1CC[C@@H](C)C[C@@H]1OC(=O)C[C@@H](NC(=O)CN)c1ccccc1` [#18], the EC50 on human TRPM8 [1] was 2950 nM.

With `CC(C)[C@@H]1CC[C@@H](C)C[C@H]1OC(=O)C(Cc1ccccc1)NC(=O)CN` (some centres unmarked) [#19], the EC50 at human TRPM8 [1] is 4280 nM.

For `CC(C)[C@@H]1CC[C@@H](C)C[C@H]1C(=O)OC[C@@H](OC(=O)CNC(=O)OC(C)(C)C)c1ccccc1` [#20], the EC50 on human TRPM8 [1] was 4470 nM.

For the compound `CC(C)[C@H]1CC[C@@H](C)C[C@@H]1OC(=O)C[C@@H](NC(=O)CN)c1ccccc1` [#21], the EC50 on human TRPM8 [1] amounted to 4960 nM.

With `CC(C)[C@@H]1CC[C@@H](C)C[C@H]1OC(=O)[C@@H](NC(=O)[C@H](C)N)c1ccccc1` [#22], at human TRPM8 [1], the EC50 was determined as 32800 nM.

Take `CC(C)[C@@H]1CC[C@@H](C)C[C@H]1OC(=O)[C@@H](NC(=O)CN)c1ccccc1` [#23]: the EC50 at human TRPM8 [1] worked out at 34100 nM.

For `CC(C)[C@@H]1CC[C@@H](C)C[C@H]1OC(=O)CCCCCN` [#25], on human TRPM8 [1], the EC50 was 9500 nM.

Turning to `CC(C)[C@@H]1CC[C@@H](C)C[C@H]1C(=O)OC[C@@H](OC(=O)[C@@H]1C[C@H](C)CC[C@H]1C(C)C)c1ccccc1` [#26], the EC50 at human TRPM8 [1] stood at 139000 nM.

As for `CC(C)[C@@H]1CC[C@@H](C)C[C@H]1COC(=O)C(NC(=O)CN)c1ccccc1` (some centres unmarked) [#27], the EC50 at human TRPM8 [1] turned out to be 145000 nM.

Consider `CC(C)[C@@H]1CC[C@@H](C)CC1OC(=O)c1ccccc1NC(=O)CN` (some centres unmarked) [#34], for which the EC50 on human TRPM8 [1] was 19000 nM.

Regarding `CC(C)[C@@H]1CC[C@@H](C)C[C@H]1O` [L-menthol], the cooling threshold result in assay [4] is on record as “about 800 ppb”.

As to `CC(C)[C@@H]1CC[C@@H](C)C[C@@H]1O` [Sample 1-neomenthol, 1-neomenthol], the cooling threshold entry in assay [4] is “about 3,000 ppb”.

`CC(C)[C@@H]1CC[C@@H](C)C[C@@H]1O` [d-neomenthol]: in assay [4], the cooling threshold result is given as “about 25,000 ppb”.
